# From US12377076B2, “Compounds for treating lymphoma or a T-cell malignant disease” (Purdue Pharma L.P., priority 2018, dated 2025)
# Values joined by “and” are separate entries in the source; they are usually repeats but may differ in a detail not shown here. Identical values can stand only once. Like-named read-outs stand apart in the source and are kept apart here.
# Experiments:
# [1] = tested on: patients with relapsed/refractory hematologic malignancies; assay: Tumour assessment: response to treatment, all HM; format: in vivo, human; settings: all 46 patients
# Excerpt: (§1) Response to treatment included evaluation of overall response rate (patients with a CR plus patients with a PR), clinical benefit (CB) rate (patients with CR plus patients with PR plus patients with stable disease (SD)), progression free survival, and overall survival according to the relevant response criteria.
# neutrophils = assay: PK/PD safety modelling: dose-nadir relationship of blood cell counts, neutrophils; format: in vivo, human; settings: (% CV) in table
# Excerpt: (§2) The obtained exposure parameters (Cmax and AUC) and PK profiles from individual patients and the respective haematological laboratory data were collected over the treatment duration and analysed regarding the relationship to peripheral blood cell counts (lymphocytes, neutrophils, platelets).
# (§3) The nadir was defined as the lowest blood cell count observed after the first administration. The nadir was extracted irrespective of the treatment duration, thus, the analysis data set included patients who received only one dose and patients who received multiple treatment cycles with tinostamustine. The baseline blood cell count, which was the count before the first administration, was included in the analysis as the cell count at dose, Cmax or AUC equal to 0. Thus, it was assumed that the baseline blood cell count was the effect level without treatment with tinostamustine. With an exploratory analysis all observations each predictor-nadir relationship was fitted with a least-squares method in R. The dose-nadir relationship was further investigated with a non-linear mixed effects approach. The advantage of the non-linear mixed effects approach compared to the exploratory analysis was that different external and patient factors could be investigated at the same time and the between patient variability can be described. […]
# patients with MM = assay: Tumour assessment: response to treatment, patients with multiple myeloma; format: in vivo, human; settings: 19 patients with MM
# Excerpt: as §1
# patients with HL = assay: Tumour assessment: response to treatment, patients with HL; format: in vivo, human
# Excerpt: as §1
# lymphocytes = assay: PK/PD safety modelling: dose-nadir relationship of blood cell counts, lymphocytes; format: in vivo, human; settings: (% CV) in table
# Excerpt: as §2, §3
# platelets = assay: PK/PD safety modelling: dose-nadir relationship of blood cell counts, platelets; format: in vivo, human; settings: (% CV) in table
# Excerpt: as §2, §3
# patients with lymphoma = assay: Tumour assessment: response to treatment, patients with lymphoma; format: in vivo, human
# Excerpt: as §1
# lymphoma = settings: in vitro and in vivo models; cited from earlier work
# [2] = PK assessment: plasma tinostamustine and metabolites M2 and M8, non-compartmental analysis and population PK model; format: in vivo, human; settings: for AUC / Cmax / Tmax: day one, Mean (SD)
# Method: Plasma samples were collected to determine the concentrations of tinostamustine and its metabolites (labelled M2 and M8) by a method fully validated according to the relevant guidelines. The PK profiles of tinostamustine in plasma were assessed in each patient in the escalation stage of the study, in cycle 1 only.
# Patients of all cohorts and over all dose levels were sampled according to the following schedule: 0.5 hours prior to dose administration, and at 15, 30 and 45 minutes and 1, 1.25, 1.50, 2, 3, 8, 24, 48 and 72 hours from the start of tinostamustine infusion. Plasma samples were collected according to the Laboratory Manual for the determination of tinostamustine and metabolites M2 and M8 concentrations using a method fully validated according to the relevant guidelines.
# A compartmental population PK analysis of tinostamustine was conducted to characterize its concentration-time profiles and its dependency on patient factors. For the analysis, the 24 hours plasma concentrations of tinostamustine at day one from 36 patients was used from whom the data was available. The concentration-time profiles were best described with a two-compartmental model with first order clearance from the central compartment.
# [3] = human, plasma, intravenous, 20 mg/m^2, 20 mg/m^2, infusion 60 minutes
# [4] = human, plasma, intravenous, 40 mg/m^2, 40 mg/m^2, infusion 60 minutes
# [5] = human, plasma, intravenous, 60 mg/m^2, 60 mg/m^2, infusion 30 minutes
# [6] = human, plasma, intravenous, 60 mg/m^2, 60 mg/m^2, infusion 60 minutes
# [7] = human, plasma, intravenous, 80 mg/m^2, 80 mg/m^2, infusion 45 minutes
# [8] = human, plasma, intravenous, 80 mg/m^2, 80 mg/m^2, infusion 60 minutes
# [9] = human, plasma, intravenous, 100 mg/m^2, 100 mg/m^2, infusion 60 minutes
# [10] = human, plasma, intravenous, 120 mg/m^2, 120 mg/m^2, infusion 60 minutes
smiles,measurement,setting,value
Cn1c(CCCCCCC(=O)NO)nc2cc(N(CCCl)CCCl)ccc21 [tinostamustine],best response complete response (CR),[1],7%
same,best response of PD,[1],41%
same,best response partial response (PR),[1],21%
same,clinical benefit rate (CBR),[1],45%
same,overall response rate (ORR),[1],28%
same,EC50 (dose required to reduce the cell count by 50%),neutrophils,49.1 mg/m^2 and 49.1 (70%) mg/m^2
same,CBR,patients with MM,42%
same,ORR,patients with MM,11%
same,best response CR,patients with MM,0 patients
same,best response PR,patients with MM,11%
same,best response SD,patients with MM,31%
same,best response of PD,patients with MM,47%
same,response,patients with HL; 1 patient with refractory HL treated with 120 m/m^2 over 6 cycles,achieved a CR
same,patients having a response from SD to CR,patients with HL; 10 patients with HL,70%
same,EC50 (dose required to reduce the cell count by 50%),lymphocytes,28.3 mg/m^2 and 28.3 (40%) mg/m^2
same,EC50 (dose required to reduce the cell count by 50%),platelets,55.5 mg/m^2 and 55.5 (72%) mg/m^2
same,CBR,patients with lymphoma; 27 patients with lymphoma,62%
same,ORR,patients with lymphoma; 27 patients with lymphoma,40%
same,best response CR,patients with lymphoma; 27 patients with lymphoma,11%
same,best response PR,patients with lymphoma; 27 patients with lymphoma,30%
same,best response SD,patients with lymphoma; 27 patients with lymphoma,22%
same,best response of PD,patients with lymphoma; 27 patients with lymphoma,37%
same,ORR and CBR,patients with lymphoma; LYM60 mg/m^2/30 min cohort,100%
same,activity against lymphoma,lymphoma,potent activity
same,dose linearity of PK,[2]; dose range 20-120 mg/m^2 over 60 minutes infusion time,linear
same,dose linearity of PK,"[2]; dose range 20 to 120 mg/m^2, infusion times of 30 to 60 minutes",dose-linear
same,AUC,[2]; [3],193 ng·h/mL
same,Cmax,[2]; [3],241 ng/mL
same,Tmax,[2]; [3],48 min
same,AUC,[2]; [4],932 ng·h/mL
same,Cmax,[2]; [4],1160 ng/mL
same,Tmax,[2]; [4],24 min
same,AUC,[2]; [5],627 ng·h/mL
same,Cmax,[2]; [5],1720 ng/mL
same,Tmax,[2]; [5],18 min
same,AUC,[2]; [6],592 ng·h/mL
same,Cmax,[2]; [6],640 ng/mL
same,Tmax,[2]; [6],60 min
same,AUC,[2]; [7],794 ng·h/mL
same,Cmax,[2]; [7],1280 ng/mL
same,Tmax,[2]; [7],24 min
same,AUC,[2]; [8],902 ng·h/mL
same,Cmax,[2]; [8],1060 ng/mL
same,Tmax,[2]; [8],48 min
same,AUC,[2]; [9],1660 ng·h/mL
same,Cmax,[2]; [9],1960 ng/mL
same,Tmax,[2]; [9],42 min
same,AUC,[2]; [10],1640 ng·h/mL
same,Cmax,[2]; [10],1770 ng/mL
same,Tmax,[2]; [10],48 min
same,half-life,"[2]; human, plasma, intravenous, population PK, two-compartmental model, 36 patients, read-out: B half-life (converted)",216 min
same,Vd,"[2]; human, plasma, intravenous, population PK, two-compartmental model, 36 patients, read-out: Central volume of distribution",20.6 L
same,half-life,"[2]; human, plasma, intravenous, population PK, two-compartmental model, 36 patients, read-out: α half-life",27 min
same,Peripheral volume of distribution,"[2]; population PK, two-compartmental model, 36 patients",11.5 L
same,time to maximum concentrations,[2]; shorter infusions,around 30 minutes
